{"source": "patent US20210161840A1", "about": "“COMPOSITIONS AND METHODS FOR TREATMENT OF IRON OVERLOAD” (priority 2018, published 2021)", "key": {"[1]": {"settings": "Keberle, 1964; cited from earlier work"}, "[2]": {"settings": "Keberle, 1964; cited from earlier work", "remark": "listed apart in the source"}, "[3]": {"settings": "Keberle, 1964; cited from earlier work", "remark": "listed apart in the source"}, "[4]": {"settings": "Keberle, 1964; cited from earlier work", "remark": "listed apart in the source"}, "[5]": {"system": "doxorubicin-induced cardiomyopathy", "assay": "Doxorubicin-induced cardiomyopathy in mice", "assay_type": "in vivo, C57BL/6 mice", "experimental": "The purpose of this study was to assess the protective effect of dexrazoxan or the zinc-dexrazoxan complex, administered with or without Ga-DFO, against doxorubicin-induced cardiomyopathy.\nC57BL/6 mice are injected once with doxorubicin, 20 mg/kg, i.p., and then divided into the following 5 groups: Group 1: untreated; Group 2: treated with dexrazoxan single dose of 400 mg/kg i.v.; Group 3: treated with the zinc complex of dexrazoxan single dose of 100 mg/kg i.v.; Group 4: treated with the Ga-DFO complex 6 mg/kg, and Group 5: treated with the zinc complex of dexrazoxan single dose of 50 mg/kg i.v. together with Ga-DFO 4 mg/kg. The animals are monitored for 21 days, measuring their survival (Kaplan-Meier curves). On Day 21 the animals are sacrificed, and their hearts are assessed histologically for cardiac remodeling and hypertrophy (collagen % or area)."}}, "data": [{"smiles": "CC(=O)N(O)CCCCCNC(=O)CCC(=O)N(O)CCCCCNC(=O)CCC(=O)N(O)CCCCCN", "note": "[DFO, N′-[5-(acetyl-hydroxy-amino)pentyl]-N-[5-[3-(5-aminopentyl-hydroxy-carbamoyl)propanoylamino]pentyl]-N-hydroxy-butane diamide]", "values": [{"measurement": "relative stability constant of DFO complex with Zn(II)", "setting": "[1]", "result": "10^11"}, {"measurement": "relative stability constant of DFO complex with Ga(III)", "setting": "[2]", "result": "10^28"}, {"measurement": "relative stability constant of DFO complex with Cu(II)", "setting": "[3]", "result": "10^14"}, {"measurement": "relative stability constant of DFO complex with Fe(III)", "setting": "[4]", "result": "10^31"}]}, {"smiles": "C[C@@H](CN1CC(=O)NC(=O)C1)N1CC(=O)NC(=O)C1", "note": "[dexrazoxan]", "values": [{"measurement": "survival", "setting": "[5]; Day 15 after doxorubicin 20 mg/kg i.p., about 90% of untreated mice die", "result": "about 50%"}, {"measurement": "collagen % of the area (cardiac histology)", "setting": "[5]; Day 21 after doxorubicin 20 mg/kg i.p., untreated about 10-12%", "result": "about 9%"}]}]}
